# Values quoted from earlier work, collected in patent publication US11382927B2, “Liquid medicinal preparation” (FUJIFILM Corporation, priority 2016, dated 2022).
# System: tumor
# Details: oral administration to mice
smiles,measurement,value
"Nc1ccn([C@@H]2S[C@H](CO)[C@@H](O)[C@@H]2F)c(=O)n1 [Compound A, 1-(2-deoxy-2-fluoro-4-thio-β-D-arabinofuranosyl)cytosine]",Antitumor activity,strong antitumor activity
